Source: PubChem BioAssay (NCI)
Several values for one entry are separate records, joined by “and”; a condition that tells them apart may be missing. Equal values may be shown once.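 Where inhibition never reached the appropriate level, the endpoint shown equals the highest concentration tested. Otherwise, values were interpolated linearly from a five-concentration, 48-hour dose response in 96-well plates. Abbreviation: GI50, concentration required for 50% inhibition of growth. The concentration for full growth arrest is given as TGI.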

What was measured:
Test in all cases: growth of human tumour cells (NCI), 48 h
MOLT-4 leukemia = tested on: MOLT-4 leukemia
OVCAR-4 ovarian = tested on: OVCAR-4 ovarian
HOP-62 NSCLC = tested on: HOP-62 NSCLC
SNB-19 CNS = tested on: SNB-19 CNS
TK-10 renal = tested on: TK-10 renal
SW-620 colon = tested on: SW-620 colon
OVCAR-8 ovarian = tested on: OVCAR-8 ovarian
HCC-2998 colon = tested on: HCC-2998 colon
SN12C renal = tested on: SN12C renal
T-47D breast = tested on: T-47D breast

Compound	GI50 (MOLT-4 leukemia) [µM]	TGI (MOLT-4 leukemia)	GI50 (OVCAR-4 ovarian)	TGI (OVCAR-4 ovarian)	GI50 (HOP-62 NSCLC) [µM]	TGI (HOP-62 NSCLC) [µM]	GI50 (SNB-19 CNS) [µM]	TGI (SNB-19 CNS)	GI50 (TK-10 renal)	TGI (TK-10 renal)	GI50 (SW-620 colon)	TGI (SW-620 colon)	GI50 (OVCAR-8 ovarian) [µM]	TGI (OVCAR-8 ovarian)	GI50 (HCC-2998 colon) [µM]	TGI (HCC-2998 colon) [µM]	GI50 (SN12C renal) [µM]	TGI (SN12C renal)	GI50 (T-47D breast) [µM]	TGI (T-47D breast) [µM]
COc1ccc(Cl)cc1NC(=O)c1ccc(NC2=C(Cl)C(=O)N(Cc3ccccc3)C2=O)cc1	1.43	13.4 µM	> 100 µM	> 100 µM	> 100	> 100	> 100	> 100 µM	> 100 µM	> 100 µM	93 µM	> 100 µM	19.4	> 100 µM	14.1	28.8	23	> 100 µM	> 100	> 100
CSC[C@H](NC(=O)COc1cccc2cnccc12)C(=O)NC(Cc1ccccc1)C(O)C(=O)N1CSC[C@H]1C(=O)NC(C)(C)C (stereo partly drawn)		> 100 µM		> 100 µM		> 100		> 100 µM		> 100 µM		> 100 µM		> 100 µM		> 100		> 100 µM		> 100
COc1ccc2c(=O)oc3c(OC)cc(CCN(C)C)c4c(=O)oc1c2c34		26.8 µM and 17.1 µM	3.47 µM and 8.43 µM	12.3 µM and 16.1 µM		28.7		29.2 µM and 21.4 µM	20.2 µM and 8.68 µM	37.1 µM and 16.7 µM	14 µM and 5.86 µM	28.1 µM and 17.4 µM		30.7 µM and 17.2 µM		25.2		27.7 µM and 15.6 µM		18
CCOC(=O)Nc1c(C)nc2ccccn12	> 100	> 100 µM	> 100 µM	> 100 µM	> 100	> 100	> 100	> 100 µM	> 100 µM	> 100 µM	> 100 µM	> 100 µM	> 100	> 100 µM	> 100	> 100	> 100	> 100 µM	> 100	> 100
CCOC(=O)c1c(C)c2c(n1Cc1ccccc1)CSCC2=O	12.2	51.9 µM	17.4 µM	> 100 µM	22.9	63.5	14.2	> 100 µM	27.3 µM	81.4 µM	17.4 µM	47 µM	27.6	> 100 µM	25.4	> 100	26	> 100 µM	7.04	45.3
COC(=O)C1=CN(CC2=CC(=O)C(C)=CC2=O)C=C(C(=O)OC)C1c1ccccc1OC	5.61	14.2 µM	22.5 µM	> 67.4 µM	23.5	> 51	> 54.9	> 100 µM	16.7 µM	35.4 µM	18.5 µM	> 64.9 µM	17.6	38.9 µM	15.5	28.9	14.8	32.9 µM	52.8	> 100
O=C(Nc1nc(-c2c[nH]c3ccccc23)cs1)c1n[nH]c(=O)c2ccccc12	0.792	> 35.4 µM	20.6 µM	> 100 µM	3.72	26.6	> 34.5	> 75 µM	14.4 µM	> 100 µM	1.91 µM	> 100 µM	2.26	> 67.6 µM	18.1	> 100	10.8	> 100 µM	> 46.4	> 96.2
CNCCCNc1ccnc2cc(Cl)ccc12	20.6	69.9 µM	18.7 µM	57.4 µM	22.4	> 100	36.1	> 100 µM	18 µM	54.4 µM	13.2 µM	58.8 µM	28.3	> 100 µM	28.7	> 100	24.6	> 100 µM	25.7	> 100
